Earlier results in US20160000762A1, “IMPROVING COGNITIVE FUNCTION” (THE REGENTS OF THE UNIVERSITY OF CALIFORNIA, priority 2013, published 2016).

Test system: Aβ
Details: after traumatic brain injury; Loane et al., 2009; cited from earlier work

Q: Which Aβ levels does the source give for `C[C@H](NC(=O)Cc1cc(F)cc(F)c1)C(=O)N[C@H](C(=O)OC(C)(C)C)c1ccccc1` [DAPT] here?
A: decreased

Q: What about the behavioral performance of the same compound?
A: improved
